This is an account of results in ChEMBL document CHEMBL4184161, “Novel all-hydrocarbon stapled p110α[E545K] peptides as blockers of the oncogenic p110α[E545K]-IRS1 interaction” (Bioorg Med Chem Lett, 2017).

Active and inactive are the calls of the source. No cut-off for these calls is given here. Numbered stars: 1 amine (or outer) side, 2 acyl side, 3 side chain; on linkers, the order of the positions; unused ones are H or OH. Bridge positions count the residues as written; N and C are the ends. Square brackets hold non-standard residues; d marks the D form. Peptide text beside a SMILES is read from it. X1 = C[C@](CCCCCC=[*:3])(N[*:1])C(=O)[*:2]; X2 = C[C@@](CCCCC=[*:3])(N[*:1])C(=O)[*:2]; R8 = C=CCCCCCC[C@@](C)(N)C(=O)O; S5 = C=CCCC[C@](C)(N)C(=O)O

RAC-alpha serine/threonine-protein kinase (Homo sapiens), sequence (P31749 whole entry): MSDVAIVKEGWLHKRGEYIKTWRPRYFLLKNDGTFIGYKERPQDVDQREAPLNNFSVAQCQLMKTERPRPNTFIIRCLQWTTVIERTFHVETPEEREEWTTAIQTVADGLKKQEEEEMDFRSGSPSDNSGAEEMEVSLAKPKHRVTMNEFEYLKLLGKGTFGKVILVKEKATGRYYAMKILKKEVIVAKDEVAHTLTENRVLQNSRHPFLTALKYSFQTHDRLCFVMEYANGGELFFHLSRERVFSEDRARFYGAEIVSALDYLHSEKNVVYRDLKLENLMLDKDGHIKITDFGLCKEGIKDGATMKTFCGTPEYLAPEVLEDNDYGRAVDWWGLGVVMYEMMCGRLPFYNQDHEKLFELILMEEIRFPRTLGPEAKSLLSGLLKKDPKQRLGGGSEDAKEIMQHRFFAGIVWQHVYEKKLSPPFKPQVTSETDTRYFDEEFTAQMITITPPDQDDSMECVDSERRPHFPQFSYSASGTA

Test system in the first data set: not listed separately
Description: Proteolytic stability of the compound assessed as Streptomyces griseus pronase-mediated compound hydrolysis by RP-HPLC method. It is filed as ADME.
`CC[C@H](C)[C@H](NC(=O)[C@H](CCC(=O)O)NC(=O)[C@H](CO)NC(C)=O)C(=O)N[C@H](C(=O)N[C@@H](CCCCN)C(=O)N[C@]1(C)CCCCCCC=CCCC[C@@](C)(C(=O)N[C@@H](Cc2cnc[nH]2)C(=O)N[C@@H](CCCNC(=N)N)C(=O)N[C@@H](Cc2cnc[nH]2)C(=O)N[C@@H](Cc2ccc(O)cc2)C(=O)N[C@@H](CS)C(N)=O)NC(=O)[C@H](Cc2c[nH]c3ccccc23)NC(=O)[C@H](CC(C)C)NC(=O)[C@H](Cc2ccccc2)NC(=O)[C@H](CC(=O)O)NC(=O)[C@H](CCCCN)NC(=O)[C@H](CCC(=O)O)NC1=O)[C@@H](C)O` (Ac-SEITK[R8]EKDFLW[S5]HRHYC-NH2; staple 6-13): the Stability entry is “Stable”.

As to `CC[C@H](C)[C@H](NC(=O)[C@H](CCC(=O)O)NC(=O)[C@H](CO)NC(C)=O)C(=O)N[C@H](C(=O)N[C@@H](CCCCN)C(=O)N[C@@H](CCC(N)=O)C(=O)N[C@@H](CCC(=O)O)C(=O)N[C@@H](CCCCN)C(=O)N[C@@]1(C)CCC/C=C/CCC[C@@](C)(C(=O)N[C@@H](Cc2cnc[nH]2)C(=O)N[C@@H](CCCNC(=N)N)C(=O)N[C@@H](Cc2cnc[nH]2)C(=O)N[C@@H](Cc2ccc(O)cc2)C(=O)N[C@@H](CS)C(N)=O)NC(=O)[C@H](Cc2c[nH]c3ccccc23)NC(=O)[C@H](CC(C)C)NC(=O)[C@H](Cc2ccccc2)NC1=O)[C@@H](C)O` (Ac-SEITKQEK[S5]FLW[S5]HRHYC-NH2; staple (E) 9-13), the Stability result is on record as “Stable”. The same measure, in the same setting: the result for `CC[C@H](C)[C@H](NC(=O)[C@H](CCC(=O)O)NC(=O)[C@H](CO)NC(C)=O)C(=O)N[C@H](C(=O)N[C@@H](CCCCN)C(=O)N[C@@H](CCC(N)=O)C(=O)N[C@@H](CCC(=O)O)C(=O)N[C@@H](CCCCN)C(=O)N[C@]1(C)CCCCCC=CCCCC[C@@](C)(C(=O)N[C@@H](Cc2ccc(O)cc2)C(=O)N[C@@H](CS)C(N)=O)NC(=O)[C@H](CCCNC(=N)N)NC(=O)[C@H](Cc2cnc[nH]2)NC(=O)[C@H](CO)NC(=O)[C@H](Cc2c[nH]c3ccccc23)NC(=O)[C@H](CC(C)C)NC(=O)[C@H](Cc2ccccc2)NC1=O)[C@@H](C)O` (Ac-SEITKQEK[X1]FLWSHR[X2]YC-NH2; staple 9-16) reads “Stable”. Consider `CC[C@H](C)[C@H](NC(=O)[C@H](CCC(=O)O)NC(C)=O)C(=O)N[C@H](C(=O)N[C@@H](CCCCN)C(=O)N[C@]1(C)CCCCCCC=CCCC[C@@](C)(C(=O)N[C@@H](Cc2cnc[nH]2)C(=O)N[C@@H](CCCNC(=N)N)C(N)=O)NC(=O)[C@H](Cc2c[nH]c3ccccc23)NC(=O)[C@H](CC(C)C)NC(=O)[C@H](Cc2ccccc2)NC(=O)[C@H](CC(=O)O)NC(=O)[C@H](CCCCN)NC(=O)[C@H](CCC(=O)O)NC1=O)[C@@H](C)O` (stereo in doubt; form 2) [listing 1 of 2 here], for which the Stability entry is given as “Stable”.

The next data set concerns the target RAC-alpha serine/threonine-protein kinase (Homo sapiens) (UniProt P31749). Nature of the data set: Inhibition of p110alpha[E545K]-IRS1 interaction-initiated Akt phosphorylation at Ser473 residue in DLD1 human colon cancer cells at 50 uM by Western blot analysis. A general note: Immunoblotting shows a protein as a band on a membrane.
In the case of `CC[C@H](C)[C@H](NC(=O)[C@H](CCC(=O)O)NC(C)=O)C(=O)N[C@H](C(=O)N[C@@H](CCCCN)C(=O)N[C@]1(C)CCCCCCC=CCCC[C@@](C)(C(=O)N[C@@H](Cc2cnc[nH]2)C(=O)N[C@@H](CCCNC(=N)N)C(N)=O)NC(=O)[C@H](Cc2c[nH]c3ccccc23)NC(=O)[C@H](CC(C)C)NC(=O)[C@H](Cc2ccccc2)NC(=O)[C@H](CC(=O)O)NC(=O)[C@H](CCCCN)NC(=O)[C@H](CCC(=O)O)NC1=O)[C@@H](C)O` (stereo in doubt; form 2) [listing 2 of 2 here], the inhibition result is “Active”. Still for that read-out and setting: for `CC[C@H](C)[C@H](NC(=O)[C@H](CCC(=O)O)NC(=O)[C@H](CO)NC(C)=O)C(=O)N[C@H](C(=O)N[C@@H](CCCCN)C(=O)N[C@@H](CCC(N)=O)C(=O)N[C@@H](CCC(=O)O)C(=O)N[C@@H](CCCCN)C(=O)N[C@@]1(C)CCC/C=C/CCC[C@@](C)(C(=O)N[C@@H](Cc2cnc[nH]2)C(=O)N[C@@H](CCCNC(=N)N)C(=O)N[C@@H](Cc2cnc[nH]2)C(=O)N[C@@H](Cc2ccc(O)cc2)C(=O)N[C@@H](CS)C(N)=O)NC(=O)[C@H](Cc2c[nH]c3ccccc23)NC(=O)[C@H](CC(C)C)NC(=O)[C@H](Cc2ccccc2)NC1=O)[C@@H](C)O` (Ac-SEITKQEK[S5]FLW[S5]HRHYC-NH2; staple (E) 9-13) the value was “Active”; for `CC[C@H](C)[C@H](NC(=O)[C@H](CCC(=O)O)NC(C)=O)C(=O)N[C@H](C(=O)N[C@@H](CCCCN)C(=O)N[C@]1(C)CCCCCCC=CCCC[C@@](C)(C(=O)N[C@@H](Cc2cnc[nH]2)C(=O)N[C@@H](CCCNC(=N)N)C(N)=O)NC(=O)[C@H](Cc2c[nH]c3ccccc23)NC(=O)[C@H](CC(C)C)NC(=O)[C@H](Cc2ccccc2)NC(=O)[C@H](CC(=O)O)NC(=O)[C@H](CCCCN)NC(=O)[C@H](CCC(=O)O)NC1=O)[C@@H](C)O` (stereo in doubt; form 1), “Active”.
